From PubChem BioAssay (NCI)
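At the GI50, growth is halved. Definition used: TGI = concentration required for complete inhibition of growth.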

Assays:
Test in all cases: growth of human tumour cells (NCI), 384-well format
KM12 colon = system: KM12 colon
SNB-75 CNS = system: SNB-75 CNS
COLO 205 colon = system: COLO 205 colon
A549 NSCLC = system: A549 NSCLC
NCI-H522 lung = system: NCI-H522 lung
MDA-MB-468 breast = system: MDA-MB-468 breast
HOP-92 NSCLC = system: HOP-92 NSCLC
SF-268 CNS = system: SF-268 CNS
HCC-2998 colon = system: HCC-2998 colon
NCI-H23 lung = system: NCI-H23 lung
NCI-H460 NSCLC = system: NCI-H460 NSCLC
RPMI-8226 leukemia = system: RPMI-8226 leukemia
TK-10 renal = system: TK-10 renal
NCI-H322M lung = system: NCI-H322M lung
HCT-116 colon = system: HCT-116 colon
SK-OV-3 ovarian = system: SK-OV-3 ovarian
OVCAR-3 ovarian = system: OVCAR-3 ovarian
UO-31 renal = system: UO-31 renal
MOLT-4 leukemia = system: MOLT-4 leukemia
LOX IMVI melanoma = system: LOX IMVI melanoma
CAKI-1 renal = system: CAKI-1 renal
NCI-H226 lung = system: NCI-H226 lung
HL-60(TB) leukemia = system: HL-60(TB) leukemia
OVCAR-5 ovarian = system: OVCAR-5 ovarian
ACHN renal = system: ACHN renal
PC-3 prostate = system: PC-3 prostate
HS 578T breast = system: HS 578T breast
SR leukemia = system: SR leukemia
SK-MEL-5 melanoma = system: SK-MEL-5 melanoma
SNB-19 CNS = system: SNB-19 CNS
MALME-3M melanoma = system: MALME-3M melanoma
IGROV1 ovarian = system: IGROV1 ovarian
OVCAR-8 ovarian = system: OVCAR-8 ovarian
OVCAR-4 ovarian = system: OVCAR-4 ovarian
UACC-257 melanoma = system: UACC-257 melanoma
BT-549 breast = system: BT-549 breast
UACC-62 melanoma = system: UACC-62 melanoma
SF-295 CNS = system: SF-295 CNS
SW-620 colon = system: SW-620 colon
HT29 colon = system: HT29 colon
RXF 393 renal = system: RXF 393 renal
SK-MEL-28 melanoma = system: SK-MEL-28 melanoma
M14 melanoma = system: M14 melanoma
786-0 renal = system: 786-0 renal
MDA-MB-435 melanoma = system: MDA-MB-435 melanoma
HOP-62 NSCLC = system: HOP-62 NSCLC
NCI/ADR-RES ovarian = system: NCI/ADR-RES ovarian
SN12C renal = system: SN12C renal
MCF7 breast = system: MCF7 breast
U251 glioblastoma = system: U251 glioblastoma
SF-539 CNS = system: SF-539 CNS
HCT-15 colon = system: HCT-15 colon
MDA-MB-231 breast = system: MDA-MB-231 breast
DU-145 prostate = system: DU-145 prostate
EKVX NSCLC = system: EKVX NSCLC
A498 renal = system: A498 renal

## O=C(c1ccc(OCCN2CCCCC2)cc1)c1c(-c2ccc(O)cc2)sc2cc(O)ccc12
KM12 colon
  GI50: 4.09 µM
  TGI: 12.7 µM
SNB-75 CNS
  GI50: 2.69 µM
  TGI: 8.46 µM
COLO 205 colon
  GI50: 17.1 µM
  TGI: 30.9 µM
A549 NSCLC
  GI50: 4.42 µM
  TGI: 15.4 µM
NCI-H522 lung
  GI50: 7.17 µM
  TGI: 19.7 µM
MDA-MB-468 breast
  GI50: 3.08 µM
  TGI: 7.65 µM
HOP-92 NSCLC
  GI50: 2.04 µM
  TGI: 5.03 µM
SF-268 CNS
  GI50: 5.08 µM
  TGI: 17.2 µM
HCC-2998 colon
  GI50: 3.71 µM
  TGI: 12.3 µM
NCI-H23 lung
  GI50: 3.46 µM
  TGI: 12.7 µM
NCI-H460 NSCLC
  GI50: 8.87 µM
  TGI: 21 µM
RPMI-8226 leukemia
  GI50: 2.78 µM
  TGI: 5.32 µM
TK-10 renal
  GI50: 9.63 µM
  TGI: 21.4 µM
NCI-H322M lung
  GI50: 1.86 µM
  TGI: 4.78 µM
HCT-116 colon
  GI50: 3.39 µM
  TGI: 12.3 µM
SK-OV-3 ovarian
  GI50: 9.94 µM
  TGI: 21.6 µM
OVCAR-3 ovarian
  GI50: 4.33 µM
  TGI: 16.6 µM
UO-31 renal
  GI50: 2.59 µM
  TGI: 7.34 µM
MOLT-4 leukemia
  GI50: 1.8 µM
  TGI: 4.59 µM
LOX IMVI melanoma
  GI50: 1.84 µM
  TGI: 3.43 µM
CAKI-1 renal
  GI50: 2.15 µM
  TGI: 5.11 µM
NCI-H226 lung
  GI50: 3.27 µM
  TGI: 11.2 µM
HL-60(TB) leukemia
  GI50: 1.83 µM
  TGI: 3.25 µM
OVCAR-5 ovarian
  GI50: 5.94 µM
  TGI: 18.2 µM
ACHN renal
  GI50: 4.02 µM
  TGI: 12.9 µM
PC-3 prostate
  GI50: 2.17 µM
  TGI: 4.97 µM
HS 578T breast
  GI50: 2.5 µM
  TGI: 6.72 µM
SR leukemia
  GI50: 3.15 µM
  TGI: 4.65 µM
SK-MEL-5 melanoma
  GI50: 1.49 µM
  TGI: 3.21 µM
SNB-19 CNS
  GI50: 11.7 µM
  TGI: 24.1 µM
MALME-3M melanoma
  GI50: 1.48 µM
  TGI: 2.83 µM
IGROV1 ovarian
  GI50: 2.75 µM
  TGI: 7.87 µM
OVCAR-8 ovarian
  GI50: 4.04 µM
  TGI: 14 µM
OVCAR-4 ovarian
  GI50: 8.87 µM
  TGI: 20.6 µM
UACC-257 melanoma
  GI50: 1.96 µM
  TGI: 3.61 µM
BT-549 breast
  GI50: 1.59 µM
  TGI: 3.74 µM
UACC-62 melanoma
  GI50: 5.22 µM
  TGI: 17.3 µM
SF-295 CNS
  GI50: 12.8 µM
  TGI: 25.5 µM
SW-620 colon
  GI50: 12.5 µM
  TGI: 25.1 µM
HT29 colon
  GI50: 5.05 µM
  TGI: 16.8 µM
RXF 393 renal
  GI50: 2.29 µM
  TGI: 5.12 µM
SK-MEL-28 melanoma
  GI50: 2.54 µM
  TGI: 7.63 µM
M14 melanoma
  GI50: 2.09 µM
  TGI: 3.88 µM
786-0 renal
  GI50: 1.55 µM
  TGI: 2.94 µM
MDA-MB-435 melanoma
  GI50: 4.38 µM
  TGI: 10.9 µM
HOP-62 NSCLC
  GI50: 3.31 µM
  TGI: 10.8 µM
NCI/ADR-RES ovarian
  GI50: 4.4 µM
  TGI: 15.1 µM
SN12C renal
  GI50: 12.6 µM
  TGI: 25.2 µM
MCF7 breast
  TGI: 2.78 µM
U251 glioblastoma
  GI50: 4.07 µM
  TGI: 13.4 µM
SF-539 CNS
  GI50: 3.27 µM
  TGI: 11.3 µM
HCT-15 colon
  GI50: 1.26 µM
  TGI: 3.51 µM
MDA-MB-231 breast
  GI50: 2.2 µM
  TGI: 4.97 µM
DU-145 prostate
  GI50: 10.8 µM
  TGI: 22.7 µM
EKVX NSCLC
  GI50: 6.23 µM
  TGI: 18.5 µM
A498 renal
  GI50: 2.11 µM
  TGI: 4.43 µM
